Measurements: patent US7238718B2, “Method for treating myolytic disease and method for screening antimyolytic agent” (Osaka Bioscience Institute, priority 2003, dated 2007)

How the values were obtained:
[1] = test system: myolysis induced by bupivacaine hydrochloride in gastrocnemius; experiment: Quantification of myolysis region by Evans' Blue extraction and absorbance (630 nm); type: in vivo, C57BL/6 mice
Description: Quantification of the degenerated region by necrosis shown in Example 1 was carried out. Evans' Blue was extracted from the freeze-dried gastrocnemius by formamide. After the extraction, absorbance of Evans' Blue (630 nm) was measured calorimetrically.

[2] = test system: myolysis induced by bupivacaine hydrochloride in gastrocnemius; experiment: Nonoperative observation of necrotic lesion using X-ray CT with iopamidol; type: in vivo, mice; settings: one day after bupivacaine hydrochloride; 15 min after iopamidol i.v.; FIG. 3
Description: Degenerated region was observed by a nonoperative manner using X-ray CT for experimental animals. N,N′-Bis[2-hydroxy-1-(hydroxymethyl)ethyl]-5-[(2S)-2-hydroxypropanoylamino]-2,4,6-triiodoisophthalamide (iopamidol), an X-ray contrast agent for urinary blood vessels, was intravenously injected from tail vein of mice after one day from the treatment with bupivacaine hydrochloride and a laminogram by an X-ray CT after 15 minutes is shown. A region with specific CT values which is noted in the laminogram of gastrocnemius decreased by administration of HQL-79. In the region where retention of the contrast agent is recognized, bleeding and edema as a result of muscular destruction are noted (refer to FIG. 3).

[3] = test system: myolysis in mdx mice; experiment: Therapeutic effect in mdx mice (Duchenne's muscular dystrophy model), Evans' Blue retention; type: in vivo; settings: continuously administered for two weeks; compared with vehicle group; FIG. 5
Description: HQL-79 was continuously administered for two weeks to mdx mice which is a model animal for Duchenne's muscular dystrophy (Bogdanovich S, et al., Nature, Nov. 28, 2002, 420(6914):418–21) […] and the effect of the HPGDS inhibitor to myolysis was tested. After two weeks from the initiation of the administration, an Evans' Blue dye solution (1.0 w/v %) was intravenously injected from tail vein. After one hour therefrom, the mice were killed by excessive anaesthetization and perfused with physiological saline solution, the gastrocnemius was excised and quickly frozen. The retention of Evans' Blue in the muscle was observed under a fluorescent microscope. Necrotic lesion was enhanced by means of fluorescence. In the mice to which HQL-79 was administered, retention of the dye (grayish white region) which is an index for myolysis decreased as compared with the group to which a vehicle was administered (refer to FIG. 5).

[4] = test system: myolysis induced by bupivacaine hydrochloride in gastrocnemius; experiment: Myolysis model induced by bupivacaine hydrochloride, Evans' Blue fluorescence microscopy of gastrocnemius; type: in vivo, C57BL/6 mice; settings: 10 mg/kg orally; 24 h after bupivacaine hydrochloride 0.5 w/v %, 0.1 ml; FIG. 1
Description: Effect of an H-PGDS inhibitor to myolysis was tested using a myolysis model induced by bupivacaine hydrochloride which is an experimental model for muscular dystrophy (Nonaka I, et al., Acta Neuropathol., 60:167–174, 1983). Bupivacaine hydrochloride (0.5 w/v %, 0.1 ml) was injected into gastrocnemius of C57BL/6 mice (K. K. Oriental Bio Service) (eight weeks old; male) to induce myolysis and, after 24 hours, Evans' Blue dye solution (1.0 w/v %) was intravenously injected from tail vein. After 30 minutes, they were killed by excessive anesthetization and perfused with physiological saline solution, gastrocnemius was excised and quickly frozen. The cryosection was prepared and then accumulated Evans' Blue was observed under a fluorescent microscope. Necrotic legion was enhanced by means of fluorescence.

## c1ccc(C(OC2CCN(CCCc3nnn[nH]3)CC2)c2ccccc2)cc1 [HQL-79, 4-benzhydryloxy-1-{3-(1H-tetrazol-5-yl)-propyl}piperidine]
[1]; HQL-79 group of Example 1, formamide extraction, FIG. 2
  incorporation of Evans' Blue into gastrocnemius (absorbance 630 nm): significantly decreased
[2]
  region with specific CT values in laminogram of gastrocnemius: decreased
[3]
  retention of Evans' Blue dye in muscle (index for myolysis): decreased
[4]
  degenerated region by necrosis (Evans' Blue fluorescence): degenerated region by necrosis became small

## O=C(O)CCn1c2c(c3ccccc31)C[C@H](NS(=O)(=O)c1ccc(F)cc1)CC2 [ramatroban, (+)-(3R)-3-(4-fluorobenzenesulfonamide)-1,2,3,4-tetrahydrocarbazole-9-propionic acid]
[1]; 30 mg/kg orally, 1 h before and 18 h after bupivacaine hydrochloride 1 w/v %, 0.05 mL, read at 24 h, FIG. 6
  amount of Evans' Blue impregnated into the tissue (absorbance 630 nm): lowered
